# Test results: patent US20240376098A1, “METHODS OF TREATMENT USING BCN057, BCN077 AND ANALOGS” (BCN Biosciences L.L.C., priority 2021, published 2024)
# Columns and labels:
# Panc-1 cells [1] = experiment: ATPLite luminescence viability assay on Panc-1 cells; format: cell-based, human
# Protocol: Viability Assay. To determine the effects of BCN 057 in comparison and combination with irinotecan, Oxaloplatin and 5Fu, the ATPLite Luminescence Assay System was used according to manufacturer's instructions. On day 1, 3,000 Panc-1 cells per well were seeded in 96-well white, opaque sterile tissue culture treated microplates and incubated for 24 hours in complete medium at 37° C., 5% CO2. On day 2, the media was exchanged with media containing various combinations of 10 uM BCN 057, 25 μM 5-Fu, 75 μM Oxaloplatin, and 50 μM Irinotecan and incubated at 37° C., 5% CO2. On day 3,4, and 5, the ATP Lite Assay was performed according to manufacturer's instructions for the 24, 48, and 72 hr timepoints. Unless otherwise stated, values were represented as a percent of the control which is the vehicle for each drug. No difference was found in viability between any control vehicle.
# Statistics. The results are shown by calculating the averages (±Standard deviation) in comparison to untreated controls with the indicated (n). The Percent Viability was calculated by dividing the average of each condition by the average of the untreated control (vehicle). Statistical analysis was performed in excel.
# The first example entailed studying the effect of BCN057 in pancreatic cancer cells. Panc-1 cells, a G12D KRAS mutant cell line was treated with BCN057 for 48 hours.
# All data points are n=5. Control (ND) received no drug and BCN057 at 2, 5, 10, and 20 μM final concentration. The Percent viability was calculated by dividing the average value for each condition by the average value of the control cells (V) at each time point.
# (§1) Further, these doses span the concentrations found in plasma during efficacy studies in rodents. Subsequently, microscope images appeared to show cell blebbing and fragmentation shortly after application of BCN057 indicating possible apoptosis. […] Blebbing and cell fragmentation was noted within 20 min of incubation with drug (as shown with the arrows). Cell fragmentation was seen between 20-30 minutes after exposure to the drug.
# The anti-apoptotic phenotype of KRAS is associated with significant resistance to chemotherapy. Thus, to examine whether BCN057 enhances cytotoxic chemotherapeutic agents such as 5-Fluorouracil, also known as 5FU, Panc1 cells were pre-treated with 5FU as reported and incubated with BCN057. […] The effect followed a dose dependent response for BCN057 and was consistent over 24, 48 and 72 hrs after BN057 treatment (24 and 48 hrs not shown).
# All data points are n=5. Control (ND) received no drugs. Study groups include 5FU (50 μM), 057 (BCN057 at 2, 5, 10, and 20 μM or 5FU+BCN057 (BCN057 at 2, 5, 10, and 20 μM in combination with 5FU at 50 μM). The Percent viability was calculated by dividing the average value for each condition by the average value of the control cells (V) with standard deviation at each time point
# Combined chemotherapy and cytotoxicity: Other cytotoxic drugs commonly used in the treatment of pancreatic or colorectal cancer were then examined in similar fashion such as those within FOLFIRINOX such as 5FU, Irinotecan and Oxaliplatin in combination equivalent doses of BCN057 over 24, 48 and 72 hours.
# FIG. 6 is a histogram showing the cytotoxicity of Oxaliplatin and Irinotecan, individually or in combination with 5FU and BCN057 on Panc-1 cells. Cells were incubated with Oxaliplatin, Irinotecan and 5FU with concentrations at 10 μM each and BCN057 (057) also at 10 μM with n=4 for all assays.
# Panc-1 cells [2] = experiment: Time lapse microscope images of pancreatic cancer cells after drug; format: cell-based, human; settings: 10 μM BCN057
# Protocol: FIG. 2A is a group of images showing pancreatic cancer cell growth after treatment with 10 μM BCN057 at time 0, 15, 30, 60, 120 and 240 minutes.
# as §1
# [3] = molecular target: T1, GSK3b in non-transformed cell types such as HEK298 (Homo sapiens, UniProt P49841); experiment: GSK3b inhibition in non-transformed cells; format: cell-based
# T1 construct: endogenous in cells; host or cells: HEK298 (so in the source)
# Protocol: To investigate the role BCN057 may have in the restoration of apoptosis in this cell line, the GSK3b-c-Jun relationship was assessed as it has been directly linked to apoptosis. Others have reported a link with GSK3b and c-Jun and apoptosis along with the fact that […] is over expressed in the oncogenic KRAS phenotype.
# Lgr5+ ISCs = experiment: Lgr5+ intestinal stem cells in 5FU treated Lgr5-Cre-ERT-GFP mice; format: in vivo; settings: 5FU treated mice receiving BCN057
# Protocol: 5FU is a component of FOLFIRINOX and the active agent metabolized from Capecitabine (Xeloda®). To, examine the effect of BCN057 against chemo induced toxicity in Lgr5+ ISCs, Lgr5-Cre-ERT-GFP mice were pre-treated with 5FU as reported and then subjected to BCN057 treatment.
# Stains of GI crypts with green=LGR5+ stem cells. Mice were treated with 5FU and 5FU+BCN057 for 5 days. BCN057 was administered for two extra days after 5FU treatment. Small intestine samples were harvested and stained for LGR5 at 3 days after the last 5FU injection. FIG. 5D is a histogram of the quantitation by % of LGR5+ cells remaining in […] sections at the crypt base showing prevention of 5-FU induced apoptosis in LGR5+ stem cells in GI.
# [4] = system: irradiated mouse T-lymphocytes; experiment: In vitro viability assay on irradiated T-lymphocytes; format: cell-based; settings: T-lymphocyte
# Protocol: FIG. 7A is a western blot showing PD-1 expression on human T-lymphocytes co-cultured with Panc-1 cells with no drug (vehicle) or 1, 6 and 12 hours with BCN057. FIG. 7B is a graph showing that the inhibition of GSK3b induces survival of Lymphocytes when exposed to radiation.
# FIG. 8 is western blot showing PDL-1 expression (red arrow) on Panc-1 cells co cultured with human T-lymphocytes with no drug (vehicle) or 2.5, 5, 7.5 and 10 hrs. with BCN057. […] In a separate study using mouse T-lymphocytes, 2Gy radiation was used to induce apoptosis with increasing amounts of BCN057.
# T1 sequence (P49841 whole entry): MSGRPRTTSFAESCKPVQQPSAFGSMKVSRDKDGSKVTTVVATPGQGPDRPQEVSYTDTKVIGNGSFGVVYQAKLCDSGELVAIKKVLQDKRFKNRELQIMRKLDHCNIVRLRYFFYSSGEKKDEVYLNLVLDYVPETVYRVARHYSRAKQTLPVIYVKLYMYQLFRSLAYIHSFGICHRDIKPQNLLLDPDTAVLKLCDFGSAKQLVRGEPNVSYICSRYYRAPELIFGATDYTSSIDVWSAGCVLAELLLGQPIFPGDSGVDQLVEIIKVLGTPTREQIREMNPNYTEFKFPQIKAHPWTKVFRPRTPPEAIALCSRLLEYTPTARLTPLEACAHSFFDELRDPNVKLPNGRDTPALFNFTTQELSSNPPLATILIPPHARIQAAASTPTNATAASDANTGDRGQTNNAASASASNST
structure (smiles),measurement,setting,value
"COc1ccc2cc(-c3nc4ccc(C)cn4c3NCc3ccco3)c(=O)[nH]c2c1 [BCN057, 3-[(Furan-2-ylmethyl)-amino]-2-(7-methoxy-2-oxo-1,2-dihydro-quinolin-3-yl)-6-methyl-imidazo[1,2-a]pyridin-1-ium]",Panc1 cells viability,"Panc-1 cells [1]; 48 hours, increasing doses of BCN057",significant decrease in Panc1 cells viability
same,IC50,"Panc-1 cells [1]; Homo sapiens, Panc-1, 72 hours post application, 2, 5, 10, 20 μM, Quest Graph IC50 Calculator",1.33 µM
same,Cytotoxicity of combination of 5FU and BCN057,"Panc-1 cells [1]; Panc1, 5FU 50 μM plus BCN057 2-20 μM, 24, 48 and 72 hrs",greater cytotoxicity than 5FU alone
same,"Tumor viability on addition of BCN057 to Oxaliplatin, Irinotecan and 5FU","Panc-1 cells [1]; Panc-1, 10 μM each, over 72 hrs",general trend of decreasing tumor viability
same,cytotoxicity toward the cells in the dose response curve,"Panc-1 cells [1]; Panc-1, 2-20 μM",potent cytotoxicity toward the cells at all concentrations
same,"Sensitivity to cytotoxic effect of 5FU, Irinotecan and Oxaliplatin in combination with BCN057","Panc-1 cells [1]; Panc-1, 24, 48 and 72 hours, all time points except Irinotecan and oxaliplatin at 72 hours",statistically significant sensitivity
same,Time at which cell fragmentation was seen after exposure,Panc-1 cells [2],20 to 30 min
same,Time to blebbing and cell fragmentation,Panc-1 cells [2],≤ 20 min
same,GSK3b inhibition,[3],inhibition was noted
same,Lgr5+ve ISCs in jejunal section,Lgr5+ ISCs,significant presence of Lgr5+ve ISCs
same,EC50,"[4]; light or radiation study, viability of irradiated mouse T-lymphocytes",5.34 µM
same,EC50,"[4]; preservation of mouse T-lymphocytes, 2Gy radiation",5.34 µM
